Source: PubChem BioAssay (NCI)
Values joined by “and” are separate entries in the source; they are usually repeats but may differ in a detail not shown here. Equal values may be shown once.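 Dose response: 5 concentrations. Exposure: 48 h. Format: 96-well plates. Endpoint: linear interpolation; highest concentration if not reached. GI50: concentration for 50% inhibition of growth. TGI marks complete inhibition of growth.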

Key:
Test in all cases: NCI tumour cell line growth inhibition, 48 h
SR leukemia = tested on: SR leukemia
SK-MEL-5 melanoma = tested on: SK-MEL-5 melanoma
BT-549 breast = tested on: BT-549 breast
NCI-H460 lung = tested on: NCI-H460 lung
RPMI-8226 leukemia = tested on: RPMI-8226 leukemia
A549 NSCLC = tested on: A549 NSCLC
COLO 205 colon = tested on: COLO 205 colon
PC-3 prostate = tested on: PC-3 prostate

## Cc1[nH]c2ccccc2c1CCCO
SR leukemia
  GI50: > 100 µM
  TGI: > 100 µM
SK-MEL-5 melanoma
  GI50: > 100 µM
  TGI: > 100 µM
BT-549 breast
  GI50: > 100 µM
  TGI: > 100 µM
NCI-H460 lung
  GI50: > 100 µM
  TGI: > 100 µM
RPMI-8226 leukemia
  GI50: > 100 µM
  TGI: > 100 µM
A549 NSCLC
  GI50: > 100 µM
  TGI: > 100 µM
COLO 205 colon
  GI50: > 100 µM
  TGI: > 100 µM
PC-3 prostate
  GI50: > 100 µM
  TGI: > 100 µM

## C[C@H]1CC[C@@]2(NC1)O[C@H]1C[C@H]3[C@@H]4CC[C@H]5C[C@@H](O)CC[C@]5(C)[C@H]4CC[C@]3(C)[C@H]1[C@@H]2C
SR leukemia
  TGI: > 100 µM
SK-MEL-5 melanoma
  GI50: 11.7 µM
  TGI: 23.7 µM and > 100 µM
BT-549 breast
  GI50: 23.8 µM
  TGI: 50 µM and > 100 µM
NCI-H460 lung
  GI50: 11.9 µM
  TGI: 34.8 µM and > 100 µM
RPMI-8226 leukemia
  GI50: 7.82 µM
  TGI: 31.4 µM and > 100 µM
A549 NSCLC
  GI50: 19.6 µM
  TGI: 50 µM and > 100 µM
COLO 205 colon
  GI50: 33.3 µM
  TGI: 50 µM and > 100 µM
PC-3 prostate
  GI50: 12.5 µM
  TGI: 42 µM and > 100 µM

## Cc1c(C(=O)Nc2ccccc2)sc2ncn(Cc3cccc(Cl)c3)c(=O)c12
SR leukemia
  GI50: 14.8 µM
  TGI: 53 µM
SK-MEL-5 melanoma
  GI50: 25.7 µM
  TGI: > 100 µM
BT-549 breast
  GI50: 11.3 µM
  TGI: 27.6 µM
NCI-H460 lung
  GI50: > 100 µM
  TGI: > 100 µM
RPMI-8226 leukemia
  GI50: 10.4 µM
  TGI: > 100 µM
A549 NSCLC
  GI50: 29.6 µM
  TGI: 93.1 µM
COLO 205 colon
  GI50: > 100 µM
  TGI: > 100 µM
PC-3 prostate
  GI50: 16.5 µM
  TGI: 49.6 µM

## C=CCN=C(N/N=C/c1ccc([N+](=O)[O-])o1)NS(=O)(=O)c1cc(C(=O)Nc2ccc(Cl)cc2)c(Cl)cc1SC
SR leukemia
  GI50: 1.28 µM
  TGI: > 23.6 µM
SK-MEL-5 melanoma
  GI50: 2.14 µM
  TGI: 4.82 µM
BT-549 breast
  GI50: 5.05 µM
  TGI: > 79.7 µM
NCI-H460 lung
  GI50: 2.22 µM
  TGI: > 35.2 µM
RPMI-8226 leukemia
  GI50: 0.504 µM
A549 NSCLC
  GI50: > 37.3 µM
  TGI: > 100 µM
COLO 205 colon
  TGI: > 100 µM
PC-3 prostate
  GI50: 2.13 µM
  TGI: > 100 µM

## O=C(/C=C/Sc1cc(C(F)(F)F)cc(C(F)(F)F)c1)c1ccc(Cl)cc1
SR leukemia
  GI50: 2.02 µM
  TGI: 5.32 µM
SK-MEL-5 melanoma
  GI50: 17.4 µM
  TGI: 32.9 µM
BT-549 breast
  GI50: 11.5 µM
  TGI: 23.8 µM
NCI-H460 lung
  GI50: 16.6 µM
  TGI: 36.6 µM
RPMI-8226 leukemia
  GI50: 0.197 µM
  TGI: 1.02 µM
A549 NSCLC
  GI50: 16.1 µM
  TGI: 32.8 µM
COLO 205 colon
  GI50: 2.1 µM
  TGI: 6.6 µM
PC-3 prostate
  GI50: 2.42 µM
  TGI: 5.97 µM

## O=C(Nc1cccc(-n2cc(-c3ccncc3)c(-c3ccc(Cl)c(O)c3)n2)c1)Nc1cc(C(F)(F)F)cc(C(F)(F)F)c1
SR leukemia
  GI50: 0.876 µM
  TGI: 3.22 µM
SK-MEL-5 melanoma
  GI50: 0.604 µM
  TGI: 1.26 µM
BT-549 breast
  GI50: 1.05 µM
  TGI: 2.05 µM
NCI-H460 lung
  GI50: 0.391 µM
  TGI: 1.36 µM
RPMI-8226 leukemia
  GI50: 0.434 µM
  TGI: 10.6 µM
A549 NSCLC
  GI50: 0.313 µM
  TGI: 1.38 µM
COLO 205 colon
  GI50: 0.896 µM
  TGI: 1.71 µM
PC-3 prostate
  GI50: 0.261 µM
  TGI: 2.24 µM

## CC1CCC/C1=C(/I)C(=O)c1ccccc1 (stereo not drawn)
SR leukemia
  TGI: 78.1 µM
SK-MEL-5 melanoma
  TGI: 69.5 µM
NCI-H460 lung
  TGI: > 100 µM
RPMI-8226 leukemia
  TGI: > 100 µM
A549 NSCLC
  TGI: > 100 µM
COLO 205 colon
  TGI: > 100 µM
PC-3 prostate
  TGI: > 100 µM

## O=C1OCC2=C1C(c1cccc(Cl)c1)c1cc3c(cc1N2CCO)OCCO3 (stereo not drawn)
SR leukemia
  GI50: 0.0581 µM
  TGI: 67.4 µM
SK-MEL-5 melanoma
  GI50: 0.036 µM
  TGI: 0.507 µM
BT-549 breast
  GI50: 0.147 µM
  TGI: 11.8 µM
NCI-H460 lung
  GI50: 0.0494 µM
  TGI: 4.59 µM
RPMI-8226 leukemia
  GI50: 0.129 µM
  TGI: 19.2 µM
A549 NSCLC
  GI50: 0.132 µM
  TGI: 4.35 µM
COLO 205 colon
  GI50: 0.0971 µM
  TGI: 0.651 µM
PC-3 prostate
  GI50: 0.0502 µM
  TGI: 13.1 µM

## CC(=O)NCCC1CN(C(=O)/C=C/I)c2ccccc21 (stereo not drawn)
SR leukemia
  TGI: > 27.4 µM
SK-MEL-5 melanoma
  TGI: 20.3 µM
BT-549 breast
  TGI: 10.8 µM
NCI-H460 lung
  TGI: 16.9 µM
RPMI-8226 leukemia
  TGI: > 60.5 µM
A549 NSCLC
  TGI: 33.1 µM
COLO 205 colon
  TGI: 14.1 µM
PC-3 prostate
  TGI: 21.1 µM

## COc1ccc2c(c1)c(CC(=O)[Se]C)c(C)n2C(=O)c1ccc(Cl)cc1
SR leukemia
  GI50: > 0.507 µM
  TGI: > 1 µM
SK-MEL-5 melanoma
  GI50: > 0.434 µM
  TGI: > 0.608 µM
NCI-H460 lung
  GI50: > 0.304 µM
  TGI: > 1 µM
RPMI-8226 leukemia
  GI50: > 0.542 µM
  TGI: > 0.942 µM
A549 NSCLC
  GI50: > 0.283 µM
  TGI: > 0.603 µM
COLO 205 colon
  GI50: > 0.608 µM
  TGI: > 1 µM
PC-3 prostate
  GI50: > 0.337 µM
  TGI: > 0.897 µM

## O=C1c2cc3c(cc2[C@@H]2[C@H]1c1ccc([N+](=O)[O-])cc1C(=O)N2CCCBr)OCO3
SR leukemia
  GI50: < 0.01 µM
  TGI: < 0.01 µM
SK-MEL-5 melanoma
  GI50: < 0.01 µM
  TGI: 0.0101 µM
BT-549 breast
  GI50: < 0.01 µM
  TGI: 0.411 µM
A549 NSCLC
  GI50: < 0.01 µM
  TGI: 0.0865 µM
COLO 205 colon
  GI50: < 0.01 µM
  TGI: > 100 µM
PC-3 prostate
  GI50: < 0.01 µM
  TGI: 0.184 µM

## C/C(=N/NC(=S)N1CCCCC1)c1ccccc1O
SK-MEL-5 melanoma
  TGI: > 100 µM
BT-549 breast
  TGI: > 100 µM
NCI-H460 lung
  TGI: > 31.6 µM
RPMI-8226 leukemia
  TGI: > 31.6 µM
A549 NSCLC
  TGI: > 31.6 µM
COLO 205 colon
  TGI: > 31.6 µM
PC-3 prostate
  TGI: > 31.6 µM

## NCCCC[C@@H]1NC(=O)[C@H]2CCCN2C(=O)[C@H](Cc2ccccc2)CNC(=O)[C@H](Cc2ccccc2)NC1=O
SR leukemia
  GI50: 31.9 µM
  TGI: > 37.5 µM
SK-MEL-5 melanoma
  GI50: > 37.5 µM
  TGI: > 37.5 µM
BT-549 breast
  GI50: > 37.5 µM
  TGI: > 37.5 µM
NCI-H460 lung
  GI50: > 37.5 µM
  TGI: > 37.5 µM
RPMI-8226 leukemia
  GI50: > 37.5 µM
  TGI: > 37.5 µM
A549 NSCLC
  GI50: > 37.5 µM
  TGI: > 37.5 µM
COLO 205 colon
  GI50: > 37.5 µM
  TGI: > 37.5 µM
PC-3 prostate
  GI50: > 37.5 µM
  TGI: > 37.5 µM

## COc1cc(OC)c(C/C=C/c2ccccc2)cc1O
SK-MEL-5 melanoma
  TGI: 29.3 µM
BT-549 breast
  TGI: 29.6 µM
NCI-H460 lung
  TGI: 31 µM
RPMI-8226 leukemia
  TGI: 38 µM
A549 NSCLC
  TGI: 46.6 µM
COLO 205 colon
  TGI: 50.7 µM
PC-3 prostate
  TGI: 35.6 µM

## C[C@@H]1[C@H](C)N1CC(O)Cn1ccnc1[N+](=O)[O-] (stereo partly drawn)
SR leukemia
  TGI: > 100 µM
SK-MEL-5 melanoma
  TGI: > 100 µM
NCI-H460 lung
  TGI: > 100 µM
A549 NSCLC
  TGI: > 100 µM
COLO 205 colon
  TGI: > 100 µM
PC-3 prostate
  TGI: > 100 µM

## COc1cc2c(cc1OC)[C@H](C)N1CCc3cc(OC)c(OC)cc3[C@@H]1C2
SK-MEL-5 melanoma
  TGI: > 100 µM
BT-549 breast
  TGI: > 100 µM
NCI-H460 lung
  TGI: > 100 µM
RPMI-8226 leukemia
  TGI: > 100 µM
A549 NSCLC
  TGI: > 100 µM
COLO 205 colon
  TGI: > 100 µM
PC-3 prostate
  TGI: > 100 µM

## CC1(C)C2CCC13C(=O)C1OC3(C2)C2C(=O)c3ccccc3C(=O)C12 (stereo not drawn)
SR leukemia
  GI50: > 100 µM
  TGI: > 100 µM
NCI-H460 lung
  GI50: > 100 µM
  TGI: > 100 µM
A549 NSCLC
  GI50: > 100 µM
  TGI: > 100 µM
COLO 205 colon
  GI50: > 100 µM
  TGI: > 100 µM
PC-3 prostate
  GI50: 77.2 µM
  TGI: > 100 µM

## O=C1NC(Nc2ccccc2)=NC(C(F)(F)F)(C(F)(F)F)N1
SR leukemia
  TGI: > 100 µM
SK-MEL-5 melanoma
  TGI: 79.6 µM
NCI-H460 lung
  TGI: > 100 µM
RPMI-8226 leukemia
  TGI: > 100 µM
A549 NSCLC
  TGI: > 100 µM
COLO 205 colon
  TGI: > 100 µM
PC-3 prostate
  TGI: > 100 µM

## O=C1CCCCCCCCCCC1CN1CCCC1 (stereo not drawn)
SK-MEL-5 melanoma
  TGI: 31.6 µM
BT-549 breast
  TGI: > 100 µM
NCI-H460 lung
  TGI: > 100 µM
RPMI-8226 leukemia
  TGI: > 100 µM
A549 NSCLC
  TGI: > 100 µM
COLO 205 colon
  TGI: 51.9 µM
PC-3 prostate
  TGI: > 100 µM

## CC(=O)N1CC(C)(C)c2c(C)c(O)c(C)c(C)c21
SK-MEL-5 melanoma
  TGI: > 100 µM
NCI-H460 lung
  TGI: > 100 µM
RPMI-8226 leukemia
  TGI: > 100 µM
A549 NSCLC
  TGI: > 100 µM
COLO 205 colon
  TGI: > 100 µM
PC-3 prostate
  TGI: > 100 µM
